# Experiments:
# [1] = target: T1, RARα (Homo sapiens, UniProt P10276); assay: BRET assay of agonist-dependent coactivator recruitment in transfected HEK293 cells; assay type: cell-based
# T1 sequence (P10276 1-462): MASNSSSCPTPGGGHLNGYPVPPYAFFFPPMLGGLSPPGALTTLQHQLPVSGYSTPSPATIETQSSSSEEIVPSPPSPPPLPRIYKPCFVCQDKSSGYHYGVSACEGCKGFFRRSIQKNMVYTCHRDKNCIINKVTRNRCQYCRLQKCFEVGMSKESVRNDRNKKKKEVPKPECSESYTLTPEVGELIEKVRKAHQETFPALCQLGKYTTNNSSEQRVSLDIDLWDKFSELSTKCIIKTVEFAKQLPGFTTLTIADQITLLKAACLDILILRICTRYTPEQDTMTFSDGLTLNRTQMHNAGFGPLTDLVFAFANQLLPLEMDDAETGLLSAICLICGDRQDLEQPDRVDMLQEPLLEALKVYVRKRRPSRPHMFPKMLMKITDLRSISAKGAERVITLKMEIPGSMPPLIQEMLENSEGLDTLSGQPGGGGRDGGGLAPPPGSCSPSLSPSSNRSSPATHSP
# Experimental: Hybrid 3 was prepared by treatment of the methyl ester of TTNN with excess hydroxylamine under alkaline conditions. The effects of hybrid 3 on RAR were initially assessed using a bioluminescence resonance energy transfer (BRET) assay. The BRET assay monitors agonist-dependent recruitment of coactivators to RARs in transfected HEK293 cells, chosen because of their high degree of transfectability. Energy transfer between luciferase (fused to RARα) and eGFP (fused to the LXXLL coactivator motif) occurs only when these moieties are juxtaposed by the RAR-LXXLL interaction, and can be detected by the emission of green fluorescence.
# Cell transfection and BRET assays: HEK293 cells were grown to confluence, trypsinized and plated at a density of 500 k cells per well (12-well plates) in DMEM supplemented with 10% charcoal treated FBS (FBS-T). The following day, cells were transfected with PEI using 0.1 μg of RAR-RLuc vector and 1 μg of LXXLL-eGFP vector. 48 hours post-transfection, cells were treated with retinoids for 2 hours before taking BRET measurements as described previously.
# [2] = test system: K-562; details: K-562 (Leukemia); 48 h
# [3] = test system: SR; details: SR (Leukemia); 48 h
# [4] = test system: A549/ATCC; details: A549/ATCC (Non-Small cell lung cancer); 48 h
# [5] = test system: NCI-H226; details: NCI-H226 (Non-Small cell lung cancer); 48 h
# [6] = test system: NCI-H460; details: NCI-H460 (Non-Small cell lung cancer); 48 h
# [7] = test system: LOX IMVI; details: LOX IMVI (Melanoma); 48 h
# [8] = test system: MDA-MB-435; details: MDA-MB-435 (Melanoma); 48 h
# [9] = test system: UACC-62; details: UACC-62 (Melanoma); 48 h
# [10] = test system: T-47D; details: T-47D (Breast); 48 h
# [11] = test system: SR; assay: cells; details: Homo sapiens, 48 h
# [12] = test system: NCI-H522; assay: cells; details: Homo sapiens, NCI-H522, 48 h
# [13] = test system: HT29; assay: cells; details: Homo sapiens, HT-29, 48 h
# [14] = test system: LOX IMVI; assay: cells; details: Homo sapiens, 48 h
# [15] = test system: M14; assay: cells; details: Homo sapiens, M14, 48 h
# [16] = test system: SK-MEL-5; assay: cells; details: Homo sapiens, SK-MEL-5, 48 h
# [17] = test system: ACHN; assay: cells; details: Homo sapiens, 48 h
# [18] = test system: MDA-MB-231/ATCC; assay: cells; details: Homo sapiens, MDA-MB-231, 48 h
compound,measurement,setting,value
CC1(C)CCC(C)(C)c2cc(-c3ccc4cc(C(=O)NO)ccc4c3)ccc21 [hybrid 3],RARα agonism (BRET signal),"[1]; 1 μM, 2 hours treatment",agonists of RARα
same,EC50,"[1]; FIG. 2b, read-out: IC50 in inducing RARα (BRET dose-response)",1020 nM
same,TGI,[2],1.46 µM
same,TGI,[3],1.2 µM
same,TGI,[4],2.15 µM
same,TGI,[5],4.19 µM
same,TGI,[6],1.07 µM
same,TGI,[7],1.36 µM
same,TGI,[8],2.54 µM
same,TGI,[9],1.86 µM
same,TGI,[10],4.03 µM
same,GI50,[11],335 nM
same,CC50,[11]; read-out: LC50,7.64 µM
same,GI50,[12],1620 nM
same,CC50,[12]; read-out: LC50,7.98 µM
same,GI50,[13],575 nM
same,CC50,[13]; read-out: LC50,7.6 µM
same,GI50,[14],372 nM
same,CC50,[14]; read-out: LC50,4.19 µM
same,GI50,[15],708 nM
same,CC50,[15]; read-out: LC50,7.43 µM
same,GI50,[16],977 nM
same,CC50,[16]; read-out: LC50,5.37 µM
same,GI50,[17],393 nM
same,CC50,[17]; read-out: LC50,5.09 µM
same,GI50,[18],1200 nM
same,CC50,[18]; read-out: LC50,12 µM

# Reference: patent publication US20130165520A1, “Hybrid Molecule Having Mixed Retinoic Acid Receptor Agonism and Histone Deacetylase Inhibitory Properties” (priority 2010, published 2013)
